Where a name gives a salt, the structure may show the parent alone. Read-outs that look alike come from different tables or passages of the source.
System: HBV rcDNA in HepDE19 cells
Assay: HepDE19 assay with bDNA quantitation of HBV rcDNA
Format: cell-based, hepatitis B virus (HBV)
Conditions: Hepatitis B virus, HepDE19, 168 h
Procedure: HepDE19 Assay with bDNA Quantitation of HBV rcDNA:
HepDE19 cell culture system is a HepG2 (human hepatocarcinoma) derived cell line that supports HBV DNA replication and cccDNA formation in a tetracycline (Tet)-regulated manner and produces HBV rcDNA and a detectable reporter molecule dependent on the production and maintenance of cccDNA (Guo, et al., 2007, J. Virol. 81:12472-12484).
HepDE19 (50,000 cells/well) were plated in 96 well collagen-coated tissue-culture treated microtiter plates in DMEM/F12 medium supplemented with 10% fetal bovine serum, 1% penicillin-streptomycin and 1 μg/mL tetracycline and incubated in a humidified incubator at 37° C. and 5% CO2 overnight. Next day, the cells were switched to fresh medium without tetracycline and incubated for 4 hours at 37° C. and 5% CO2. The cells were treated with fresh Tet-free medium with compounds at concentrations starting at 25 μM and a serial, ½ log, 8-point, titration series in duplicate. The final DMSO concentration in the assay was 0.5%. The plates were incubated for 7 days in a humidified incubator at 37° C. and 5% CO2. Following a 7 day-incubation, the level of rcDNA present in the inhibitor-treated wells was measured using a Quantigene 2.0 bDNA assay kit (Affymetrix, Santa Clara, Calif.) with HBV specific custom probe set and manufacturers instructions. Concurrently, the effect of compounds on cell viability was assessed using replicate plates, plated at a density of 5,000 cells/well and incubated for 4 days, to determine the ATP content as a measure of cell viability using the cell-titer glo reagent (CTG; Promega Corporation, Madison, Wis.) as per manufacturer's instructions. The plates were read using a Victor luminescence plate reader (PerkinElmer Model 1420 Multilabel counter) and the relative luminescence units (RLU) data generated from each well was calculated as % inhibition of the untreated control wells and analyzed using XL-Fit module in Microsoft Excel to determine EC50 and EC90 (bDNA) and CC50 (CTG) values using a 4-parameter curve fitting algorithm.
Representative compounds of the invention were tested for their ability to inhibit formation of relaxed circular DNA (rcDNA) in a HepDE19 assay, as described elsewhere herein.

[1] = read-out: DE-19 bDNA EC50, HepDE19 cells, 7 day incubation, rcDNA by Quantigene 2.0 bDNA assay
[2] = HepDE19 cells, 7 day incubation, rcDNA by Quantigene 2.0 bDNA assay, read-out: DE-19 bDNA EC50

SMILES	EC50 [1] [µM]	EC50 [2] [µM]
CNC(=O)N[C@H]1CCOc2c(C(=O)Nc3ccc(F)c(F)c3)cccc21 [Compound 13, (S)—N-(3,4-difluorophenyl)-4-(3-methylureido) chromane-8-carboxamide]	2.3	–
CC[C@@H](C)OC1CCOc2c(C(=O)Nc3ccc(F)c(F)c3)cccc21 (stereo partly drawn) [Compound 14, 4-((R)-sec-butoxy)-N-(3,4-difluorophenyl)chromane-8-carboxamide]	–	6
O=C(N[C@H]1CCOc2c(C(=O)Nc3ccc(F)c(F)c3)cccc21)c1ccncc1 [Compound 16]	–	13
CCOC(=O)N[C@H]1CCOc2c(C(=O)Nc3ccc(F)c(F)c3)cccc21 [Compound 18, Ethyl (8-((3,4-difluorophenyl)carbamoyl)chroman-4-yl)carbamate]	6.6	–
COCCCOC(=O)N[C@H]1CCOc2c(C(=O)Nc3ccc(F)c(F)c3)cccc21 [Compound 19, 3-Methoxypropyl (8-((3,4-difluorophenyl)carbamoyl)chroman-4-yl) carbamate]	–	6
CC(C)OC(=O)N[C@H]1CCOc2c(C(=O)Nc3ccc(F)c(F)c3)cccc21 [Compound 20, Isopropyl (8-((3,4-difluorophenyl)carbamoyl)chroman-4-yl)carbamate]	14	–
CCCOC(=O)N[C@H]1CCOc2c(C(=O)Nc3ccc(F)c(F)c3)cccc21 [Compound 21, Propyl (8-((3,4-difluorophenyl)carbamoyl)chroman-4-yl)carbamate]	22	–
COCCOC(=O)N[C@H]1CCOc2c(C(=O)Nc3ccc(F)c(F)c3)cccc21 [Compound 22, 2-Methoxyethyl (8-((3,4-difluorophenyl)carbamoyl)chroman-4-yl) carbamate]	4.7	–
O=C(N[C@H]1CCOc2c(C(=O)Nc3ccc(F)c(F)c3)cccc21)OCc1cccnc1 [Compound 23]	3	–
O=C(Nc1ccc(F)c(F)c1)c1cccc2c1OCC[C@H]2NC(=O)N1CCCC1 [Compound 24, (R)-N-(8-((3,4-difluorophenyl)carbamoyl)chroman-4-yl)pyrrolidine-1-carboxamide]	–	24
O=C(N[C@H]1CCOc2c(C(=O)Nc3ccc(F)c(F)c3)cccc21)OCc1ccccn1 [Compound 27, Pyridin-2-ylmethyl-(8-((3,4-difluorophenyl)carbamoyl)chroman-4-yl)carbamate]	–	2.5
O=C(N[C@@H]1CCOc2c(C(=O)Nc3ccc(F)c(F)c3)cccc21)OCc1ccccn1 [Compound 28, pyridin-2-ylmethyl (R)-(8-((3,4-difluorophenyl)carbamoyl)chroman-4-yl)carbamate]	–	15
O=C(N[C@H]1CCOc2c(C(=O)Nc3ccc(F)c(F)c3)cccc21)OCc1ccncc1 [Compound 29, Pyridin-4-ylmethyl-(8-((3,4-difluorophenyl)carbamoyl)chroman-4-yl)carbamate]	–	2.2
O=C(N[C@@H]1CCOc2c(C(=O)Nc3ccc(F)c(F)c3)cccc21)OCc1ccncc1 [Compound 30, pyridin-4-ylmethyl (R)-(8-((3,4-difluorophenyl)carbamoyl)chroman-4-yl)carbamate]	–	11
COC(=O)N[C@H]1CCOc2c(C(=O)NCc3ccc(F)cc3)cccc21 [Compound 31, Methyl (S)-(8-((4-fluorobenzyl)carbamoyl)chroman-4-yl)carbamate]	–	17
COC(=O)N[C@H]1CCOc2c(C(=O)Nc3ccc(F)c(Cl)c3)cccc21 [Compound 32, Methyl (S)-(8-((3-chloro-4-fluorophenyl)carbamoyl)chroman-4-yl)carbamate]	–	0.85
COC(=O)N[C@H]1CCOc2c(C(=O)Nc3ccc(F)cc3)cccc21 [Compound 33, Methyl (S)-(8-((4-fluorophenyl)carbamoyl)chroman-4-yl)carbamate]	–	3.5
NC(=O)NC1CCOc2c(C(=O)Nc3ccc(F)c(F)c3)cccc21 (centres unmarked) [Compound 34, N-(3,4-Difluorophenyl)-4-ureidochromane-8-carboxamide]	–	4.7
COC(=O)N[C@H]1CCOc2c(C(=O)Nc3ccccc3)cccc21 [Compound 35, Methyl (S)-(8-(phenylcarbamoyl)chroman-4-yl)carbamate]	–	7.5

SMILES	EC50 [1] [µM]	EC50 [2] [µM]
COC(=O)N[C@H]1CCOc2c(C(=O)NCc3cccc(F)c3)cccc21 [Compound 36, methyl (S)-(8-((3-fluorobenzyl)carbamoyl)chroman-4-yl)carbamate]	–	22
COC(=O)N[C@H]1CCOc2c(C(=O)Nc3cccc(Cl)c3)cccc21 [Compound 37, Methyl (S)-(8-((3-chlorophenyl)carbamoyl)chroman-4-yl)carbamate]	–	2.8
COC(=O)N[C@H]1CCOc2c(C(=O)Nc3ccc(F)c(F)c3)ccc(F)c21 [Compound 38, methyl (S)-(8-((3,4-difluorophenyl)carbamoyl)-5-fluorochroman-4-yl)carbamate]	0.57	–
COC(=O)N[C@@H]1CCOc2c(C(=O)Nc3ccc(F)c(F)c3)ccc(F)c21 [Compound 39, methyl (R)-(8-((3,4-difluorophenyl)carbamoyl)-5-fluorochroman-4-yl)carbamate]	–	8.5
CNC(=O)N[C@H]1CCOc2c(C(=O)Nc3ccc(F)c(F)c3)ccc(F)c21 [Compound 40, (S)—N-(3,4-difluorophenyl)-5-fluoro-4-(3-methylureido)chromane-8-carboxamide]	0.67	–
CNC(=O)N[C@@H]1CCOc2c(C(=O)Nc3ccc(F)c(F)c3)ccc(F)c21 [Compound 41, (R)-N-(3,4-difluorophenyl)-5-fluoro-4-(3-methylureido) chromane-8-carboxamide]	–	23
O=C(Nc1ccc(F)c(F)c1)c1cccc2c1OCC[C@@H]2Nc1ncccn1 [Compound 42, (S)-N-(3,4-difluorophenyl)-4-(pyrimidin-2-ylamino) chromane-8-carboxamide]	–	3.4
COC(=O)N[C@H]1CCOc2c(C(=O)Nc3cccc(C#N)c3)cccc21 [Compound 43, Methyl (S)-(8-((3-cyanophenyl)carbamoyl)chroman-4-yl)carbamate]	–	8.7
COC(=O)N[C@H]1CCOc2c(C(=O)Nc3ccc(F)c(C(F)(F)F)c3)cccc21 [Compound 44, Methyl (S)-(8-((4-fluoro-3-(trifluoromethyl)phenyl)carbamoyl)chroman-4-yl)carbamate]	–	3.5
COC(=O)N[C@H]1CCOc2c(C(=O)Nc3cc(F)c(F)c(F)c3)cccc21 [Compound 45, Methyl (S)-(8-((3,4,5-trifluorophenyl)carbamoyl)chroman-4-yl)carbamate]	–	1.2
COC(=O)N[C@H]1CCOc2c(C(=O)Nc3cc(F)cc(F)c3)cccc21 [Compound 46, Methyl (S)-(8-((3,5-difluorophenyl)carbamoyl)chroman-4-yl)carbamate]	–	5.8
COC(=O)N[C@H]1CCOc2c1ccc(F)c2C(=O)Nc1ccc(F)c(F)c1 [Compound 47, Methyl (8-((3,4-difluorophenyl)carbamoyl)-7-fluorochroman-4-yl)carbamate]	3.6	–
CNC(=O)N[C@H]1CCOc2c1ccc(F)c2C(=O)Nc1ccc(F)c(F)c1 [Compound 48, (S)-N-(3,4-difluorophenyl)-7-fluoro-4-(3-methylureido) chromane-8-carboxamide]	–	6.7
COC(=O)N[C@H]1CCOc2c(C(=O)Nc3cccc(C(F)(F)F)c3)cccc21 [Compound 49]	11	–
COC(=O)N[C@H]1CCOc2c(C(=O)Nc3ccc(F)c(C)c3)cccc21 [Compound 50, Methyl (S)-(8-((4-fluoro-3-methylphenyl)carbamoyl)chroman-4-yl)carbamate]	–	0.65
O=C(N[C@H]1CCOc2c(C(=O)Nc3ccc(F)c(Cl)c3)cccc21)OCc1ccccn1 [Compound 51, Pyridin-2-ylmethyl (S)-(8-((3-chloro-4-fluorophenyl)carbamoyl)chroman-4-yl)carbamate hydrochloride]	1.2	–
Cc1cccc(COC(=O)N[C@H]2CCOc3c(C(=O)Nc4ccc(F)c(Cl)c4)cccc32)n1 [Compound 52, (6-Methylpyridin-2-yl)methyl (S)-(8-((3-chloro-4-fluorophenyl)carbamoyl)chroman-4-yl)carbamate]	–	1.7
Cc1cccc(COC(=O)N[C@H]2CCOc3c(C(=O)Nc4ccc(F)c(F)c4)cccc32)n1 [Compound 53, (6-Methylpyridin-2-yl)methyl (S)-(8-((3,4-difluorophenyl)carbamoyl)chroman-4-yl)carbamate]	–	4.4
COc1ccnc(N[C@H]2CCOc3c(C(=O)Nc4ccc(F)c(F)c4)cccc32)n1 [Compound 54, (S)—N-(3,4-Difluorophenyl)-4-((4-methoxypyrimidin-2-yl)amino)chromane-8-carboxamide]	–	4.1

Source: patent publication US11001564B2, “Substituted chromane-8-carboxamide compounds and analogues thereof, and methods using same” (priority 2016, dated 2021)
